Structures are written as SMILES.

The test system of the first assay is tau protein. The assay is described as follows: Tau protein in vitro degradation assay (Western blot, Tau-13 antibody). Format: cell-based, human. As to conditions: SK-N-SH cells; 72 hours of incubation; tested at 300 nM, 100 nM, 33 nM and 11 nM; Western blot, Tau-13 antibody. The gist of the method: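 SK-N-SH cells, seeded ≥18 h beforehand, were incubated 72 h with tau PROTACs at 1000, 300 and 100 nM or at 300, 100, 33 and 11 nM. Lysates in protease-inhibitor buffer were resolved by SDS-PAGE; tau quantified by Western blot with Tau-13 antibody recognising all human tau forms.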
On the technique in general: In western blotting, separated proteins are transferred to a membrane and probed.
As for `Cn1c2ccncc2c2ccc(-c3ccc(O[C@H]4C[C@H](Oc5ccc(CCCCCCOc6ccc7c(c6)C(=O)N(C6CCC(=O)NC6=O)C7=O)nn5)C4)nc3)cc21` (stereo partly shown) [Compound 149, 2-(2,6-dioxopiperidin-3-yl)-5-((6-(6-((1r,3r)-3-((5-(5-methyl-5H-pyrido[4,3-b]indol-7-yl)pyridin-2-yl)oxy)cyclobutoxy)pyridazin-3-yl)hexyl)oxy)isoindoline-1,3-dione], the “Degradation activity* (highest amount of degradation observed at any dosage; tau protein remaining)” value was “B (≤80% and >50% tau protein remaining after 72 hours of incubation with the test compound)”. On the same count and under the same terms, under `Cn1c2ccncc2c2ccc(-c3ccc(O[C@H]4C[C@H](N(C)C5CC6(C5)CN(CCCCCOc5ccc7c(c5)C(=O)N(C5CCC(=O)NC5=O)C7=O)C6)C4)nc3)cc21` (stereo partly shown) [Compound 126, 2-(2,6-dioxopiperidin-3-yl)-5-((5-(6-(methyl((1r,3r)-3-((5-(5-methyl-5H-pyrido[4,3-b]indol-7-yl)pyridin-2-yl)oxy)cyclobutyl)amino)-2-azaspiro[3.3]heptan-2-yl)pentyl)oxy)isoindoline-1,3-dione] stands “B (≤80% and >50% tau protein remaining after 72 hours of incubation with the test compound)”; under `O=C1CCC(N2C(=O)c3cnc(OCCOCCOCCOCCOCCOc4ccc(-c5ccc6c(c5)[nH]c5ccncc56)cn4)cc3C2=O)C(=O)N1` (stereo not shown) [Compound 87, 6-((14-((5-(5H-pyrido[4,3-b]indol-7-yl)pyridin-2-yl)oxy)-3,6,9,12-tetraoxatetradecyl)oxy)-2-(2,6-dioxopiperidin-3-yl)-1H-pyrrolo[3,4-c]pyridine-1,3 (2H)-dione], “C (>80% tau protein remaining after 72 hours of incubation with the test compound)”; under `Cn1c2ccncc2c2ccc(-c3ccc(CCCN4CCN(CCCCCOc5ccc6c(c5)CN(C5CCC(=O)NC5=O)C6=O)CC4)nc3)cc21` (stereo not shown) [Compound 62, 3-(5-((5-(4-(3-(5-(5-methyl-5H-pyrido[4,3-b]indol-7-yl)pyridin-2-yl)propyl)piperazin-1-yl)pentyl)oxy)-1-oxoisoindolin-2-yl)piperidine-2,6-dione], “C (>80% tau protein remaining after 72 hours of incubation with the test compound)”.

In the case of `Cc1ncsc1-c1ccc(CNC(=O)[C@@H]2C[C@@H](O)CN2C(=O)[C@H](C(C)C)N2Cc3ccccc3C2=O)c(OCCOCCOCCOCCOc2ccc(-c3ccc4c(c3)[nH]c3ccncc34)cn2)c1` [Compound 196, (2S,4R)—N-(2-(2-(2-(2-(2-((5-(5H-pyrido[4,3-b]indol-7-yl)pyridin-2-yl)oxy)ethoxy)ethoxy)ethoxy)ethoxy)-4-(4-methylthiazol-5-yl)benzyl)-4-hydroxy-1-((S)-3-methyl-2-(1-oxoisoindolin-2-yl)butanoyl)pyrrolidine-2-carboxamide], the “Degradation activity (tau protein remaining; highest amount of degradation observed at any dosage)” value is recorded as “C (>80% tau protein remaining after 72 hours of incubation with the test compound)”.

Turning to `O=C1CCC(N2C(=O)c3ccc(OCCOCCOCCOCCOCCOc4ccc(-c5ccc6c7cnccc7n(C(F)F)c6c5)cn4)cc3C2=O)C(=O)N1` (stereo not shown) [Compound 138, 5-((14-((5-(5-(difluoromethyl)-5H-pyrido[4,3-b]indol-7-yl)pyridin-2-yl)oxy)-3,6,9,12-tetraoxatetradecyl)oxy)-2-(2,6-dioxopiperidin-3-yl)isoindoline-1,3-dione], the “Degradation activity* (highest amount of degradation observed at any dosage; tau protein remaining)” value was “B (≤80% and >50% tau protein remaining after 72 hours of incubation with the test compound)”.

`Cn1c2ccncc2c2ccc(-c3ccc(O[C@H]4C[C@H](OCC#CCOCCOC5CN(c6ccc7c(c6)C(=O)N(C6CCC(=O)NC6=O)C7=O)C5)C4)nc3)cc21` (stereo partly shown) [Compound 212, 2-(2,6-dioxopiperidin-3-yl)-5-(3-(2-((4-((1r,3r)-3-((5-(5-methyl-5H-pyrido[4,3-b]indol-7-yl)pyridin-2-yl)oxy)cyclobutoxy)but-2-yn-1-yl)oxy)ethoxy)azetidin-1-yl)isoindoline-1,3-dione]: the “Degradation activity (tau protein remaining; highest amount of degradation observed at any dosage)” value is listed as “A (≤50% tau protein remaining after 72 hours of incubation with the test compound)”.

On to `Cn1c2ccncc2c2ccc(-c3ccc(O[C@H]4C[C@H](OCCCC(F)(F)COC5CC6(C5)CN(c5ccc7c(c5)C(=O)N(C5CCC(=O)NC5=O)C7=O)C6)C4)nc3)cc21` (stereo partly shown) [Compound 197, 5-(6-((2,2-difluoro-5-((1r,3r)-3-((5-(5-methyl-5H-pyrido[4,3-b]indol-7-yl)pyridin-2-yl)oxy)cyclobutoxy)pentyl)oxy)-2-azaspiro[3.3]heptan-2-yl)-2-(2,6-dioxopiperidin-3-yl)isoindoline-1,3-dione], for which the “Degradation activity (tau protein remaining; highest amount of degradation observed at any dosage)” value is “C (>80% tau protein remaining after 72 hours of incubation with the test compound)”. For the molecule `Cn1c2ccncc2c2ccc(-c3cnc(O[C@H]4C[C@H](Oc5ccc(C#CCN6CC(Oc7ccc8c(c7)C(=O)N(C7CCC(=O)NC7=O)C8=O)C6)nc5)C4)c(C(F)(F)F)c3)cc21` (stereo partly shown) [Compound 142, 2-(2,6-dioxopiperidin-3-yl)-5-((1-(3-(5-((1r,3r)-3-((5-(5-methyl-5H-pyrido[4,3-b]indol-7-yl)-3-(trifluoromethyl)pyridin-2-yl)oxy)cyclobutoxy)pyridin-2-yl)prop-2-yn-1-yl)azetidin-3-yl)oxy)isoindoline-1,3-dione], the “Degradation activity* (highest amount of degradation observed at any dosage; tau protein remaining)” value is “C (>80% tau protein remaining after 72 hours of incubation with the test compound)”. In the case of `Cn1c2cc(-c3ccc(OCCOCCOCCOCCOCCOc4ccc5c(c4)C(=O)N(C4CCC(=O)NC4=O)C5=O)nc3)ccc2c2cncc(Cl)c21` (stereo not shown) [Compound 195, 5-((14-((5-(4-chloro-5-methyl-5H-pyrido[4,3-b]indol-7-yl)pyridin-2-yl)oxy)-3,6,9,12-tetraoxatetradecyl)oxy)-2-(2,6-dioxopiperidin-3-yl)isoindoline-1,3-dione], the “Degradation activity (tau protein remaining; highest amount of degradation observed at any dosage)” value is “A (≤50% tau protein remaining after 72 hours of incubation with the test compound)”. For `Cn1c2ccncc2c2ccc(-c3cnc(OCCOCCOCCOCCOCCOc4ccc5c(c4)C(=O)N(C4CCC(=O)NC4=O)C5=O)c(F)c3)cc21` (stereo not shown) [Compound 139, 2-(2,6-dioxopiperidin-3-yl)-5-((14-((3-fluoro-5-(5-methyl-5H-pyrido[4,3-b]indol-7-yl)pyridin-2-yl)oxy)-3,6,9,12-tetraoxatetradecyl)oxy)isoindoline-1,3-dione], the “Degradation activity* (highest amount of degradation observed at any dosage; tau protein remaining)” value is “B (≤80% and >50% tau protein remaining after 72 hours of incubation with the test compound)”. For the molecule `Cn1c2ccncc2c2c(F)c(F)c(-c3ccc(O[C@H]4C[C@H](OCCCOCCCOC5CN(c6ccc7c(c6)C(=O)N(C6CCC(=O)NC6=O)C7=O)C5)C4)nc3)cc21` (stereo partly shown) [Compound 176, 5-(3-(3-(3-((1r,3r)-3-((5-(8,9-difluoro-5-methyl-5H-pyrido[4,3-b]indol-7-yl)pyridin-2-yl)oxy)cyclobutoxy)propoxy)propoxy)azetidin-1-yl)-2-(2,6-dioxopiperidin-3-yl)isoindoline-1,3-dione], the “Degradation activity (tau protein remaining; highest amount of degradation observed at any dosage)” value is on record as “C (>80% tau protein remaining after 72 hours of incubation with the test compound)”.

On to `Cn1c2ccncc2c2ccc(-c3ccc(O[C@H]4C[C@H](OCC56CC(COCCOCCOc7ccc8c(c7)C(=O)N(C7CCC(=O)NC7=O)C8=O)(C5)C6)C4)nc3)cc21` (stereo partly shown) [Compound 209, 2-(2,6-dioxopiperidin-3-yl)-5-(2-(2-((3-(((1r,3r)-3-((5-(5-methyl-5H-pyrido[4,3-b]indol-7-yl)pyridin-2-yl)oxy)cyclobutoxy)methyl)bicyclo[1.1.1]pentan-1-yl)methoxy)ethoxy)ethoxy)isoindoline-1,3-dione], for which the “Degradation activity (tau protein remaining; highest amount of degradation observed at any dosage)” value is recorded as “A (≤50% tau protein remaining after 72 hours of incubation with the test compound)”. On the same count and under the same terms, under `Cn1c2ccncc2c2ccc(N3CCN(CCCOCCOCCOCCOCCOc4ccc5c(c4)C(=O)N(C4CCC(=O)NC4=O)C5=O)CC3)cc21` (stereo not shown) [Compound 210, 2-(2,6-dioxopiperidin-3-yl)-5-((15-(4-(5-methyl-5H-pyrido[4,3-b]indol-7-yl)piperazin-1-yl)-3,6,9,12-tetraoxapentadecyl)oxy)isoindoline-1,3-dione] stands “C (>80% tau protein remaining after 72 hours of incubation with the test compound)”.

Staying with this assay, now noted: SK-N-SH cells; 72 hours of incubation; tested at 1000 nM, 300 nM and 100 nM.
Consider `Cc1ncsc1-c1ccc([C@H](C)NC(=O)[C@@H]2C[C@@H](O)CN2C(=O)[C@@H](NC(=O)COCCOCCOCCOCCN2CCN(c3ccn4c(n3)nc3ccccc34)CC2)C(C)(C)C)cc1` [Compound 16, (2S,4R)-1-((S)-17-(4-(benzo[4,5]imidazo[1,2-a]pyrimidin-2-yl)piperazin-1-yl)-2-(tert-butyl)-4-oxo-6,9,12,15-tetraoxa-3-azaheptadecanoyl)-4-hydroxy-N—((S)-1-(4-(4-methylthiazol-5-yl)phenyl)ethyl)pyrrolidine-2-carboxamide], for which the “Activity* (highest amount of degradation observed at any dosage, as tau protein remaining)” value is reported as “C (>80% tau protein remaining after 72 hours of incubation with the test compound)”.

As for `Cc1ncsc1-c1ccc(CNC(=O)[C@@H]2C[C@@H](O)CN2C(=O)[C@@H](NC(=O)COCCCCOc2ccc3nc(-c4ccc(N(C)C)cc4)ccc3c2)C(C)(C)C)cc1` [Compound 33, (2S,4R)-1-((S)-2-(2-(4-(2-(4-(dimethylamino)phenyl)quinolin-6-yloxy)butoxy)acetamido)-3,3-dimethylbutanoyl)-4-hydroxy-N-(4-(4-methylthiazol-5-yl)benzyl)pyrrolidine-2-carboxamide], the “Activity* (highest amount of degradation observed at any dosage, as tau protein remaining)” value is reported as “C (>80% tau protein remaining after 72 hours of incubation with the test compound)”.

The values are drawn from US11458123B2 (Arvinas, Inc., priority 2016, dated 2022).
